Columns and labels:
[1] = MTT anti-proliferation assay, non-tumorigenic cells; type: cell-based; conditions: human, non-tumorigenic MCF-10A cells, 24 h treatment
Method: (§1) Initial experiments were performed for evaluation of growth inhibition by the new compounds against six human breast cancer cell lines, including MCF-7 (ER+/PR+, HER-2-), BT474 (ER+/PR+, HER-2+), SKBR-3 (ER-/PR-/HER-2+), MDA-MB-436 (ER-/PR-/HER-2-), MDA-MB-231 (ER-/PR-/HER-2-), MDA-MB-468 (ER-/PR-/HER-2-) and non-tumorigenic MCF-10A cells. After 24 h treatment by the obtained compounds, the inhibition was assessed and the IC50 was summarized. […] Subsequently, the inhibition of STAT3 activation by PMM-172 and Stattic was evaluated using a dual-luciferase assay.
(§2) The anti-proliferative activities of the prepared compounds against MCF-7 (ER+/PR+, HER-2-), BT474 (ER+/PR+, HER-2+), SKBR-3 (ER-/PR-/HER-2+), MDA-MB-436 (ER-/PR-/HER-2-), MDA-MB-231 (ER-/PR-/HER-2-), MDA-MB-468 (ER-/PR-/HER-2-) and non-tumorigenic MCF-10A cell lines were evaluated using a standard (MTT)-based colorimetric assay with some modification. Cell lines were grown to log phase in DMEM supplemented with 10% fetal bovine serum. Cell suspensions were prepared and 100 μL/well dispensed into 96-well plates giving 10^4 cells/well. The subsequent incubation was permitted at 37 °C, 5% CO2 atmosphere for 24 h to allow the cells to reattach. Subsequently, cells were treated with the target compounds at increasing concentrations in the presence of 10% FBS for 24 h. Then, cell viability was assessed by the conventional 3-(4, 5-dimethylthiazol-2-yl)-2, 5-diphenyltetrazolium bromide (MTT) reduction assay and carried out strictly according to the manufacturer instructions. The absorbance (OD570) was read on an ELISA reader (Tecan, Austria). In all experiments, three replicate wells were used for each drug concentration. Each assay was carried out for at least three times.

BT-474 = test: MTT anti-proliferation assay; type: cell-based, human; conditions: Homo sapiens, BT-474, 24 h treatment
Method: as §1, §2

MCF-7 = test: MTT anti-proliferation assay; type: cell-based, human; conditions: Homo sapiens, MCF7, 24 h treatment
Method: as §1, §2

MDA-MB-231 = test: MTT anti-proliferation assay; type: cell-based, human
Method: as §1, §2

MDA-MB-436 = test: MTT anti-proliferation assay; type: cell-based, human; conditions: Homo sapiens, MDA-MB-436, 24 h treatment
Method: as §1, §2

MDA-MB-468 = test: MTT anti-proliferation assay; type: cell-based, human; conditions: Homo sapiens, MDA-MB-468, 24 h treatment
Method: as §1, §2

SKBR-3 = test: MTT anti-proliferation assay; type: cell-based, human; conditions: Homo sapiens, SK-BR-3, 24 h treatment
Method: as §1, §2

[2] = Homo sapiens, MDA-MB-231, 24 h treatment

SMILES | CC50 at 24 h [1] | IC50 (BT-474) | IC50 (MCF-7) | IC50 (MDA-MB-231; [2]) | IC50 (MDA-MB-436) | IC50 (MDA-MB-468) | IC50 (SKBR-3) | IC50 (MDA-MB-231; 24 h treatment) | IC50 (MDA-MB-231; Homo sapiens, MDA-MB-231, 24 h, 24 h treatment)
CC(C)=CC[C@@H](OC(=O)CSc1nnc(-c2ccccc2Cl)o1)C1=CC(=O)c2c(O)ccc(O)c2C1=O [PMM-164, (R)-1-(5,8-dihydroxy-1,4-dioxo-1,4-dihydronaphthalen-2-yl)-4-methylpent-3-en-1-yl 2-((5-(2-chlorophenyl)-1,3,4-oxadiazol-2-yl)thio)acetate] | 74.6 ± 0.55 µM | 7.09 ± 0.65 µM | 5.71 ± 0.52 µM | 3.76 ± 1.02 µM | 4.41 ± 0.55 µM | 3.94 ± 0.73 µM | 4.49 ± 0.58 µM | – | –
CC(C)=CC[C@@H](OC(=O)CSc1nnc(-c2ccc(Cl)cc2)o1)C1=CC(=O)c2c(O)ccc(O)c2C1=O [PMM-162, (R)-1-(5,8-dihydroxy-1,4-dioxo-1,4-dihydronaphthalen-2-yl)-4-methylpent-3-en-1-yl 2-((5-(4-chlorophenyl)-1,3,4-oxadiazol-2-yl)thio)acetate] | 91.9 ± 1.21 µM | 9.54 ± 0.91 µM | 9.01 ± 0.92 µM | 6.14 ± 1.05 µM | 7.28 ± 0.77 µM | 6.85 ± 0.92 µM | 8.03 ± 0.83 µM | – | –
CC(C)=CC[C@@H](OC(=O)CSc1nnc(-c2cccc(F)c2)o1)C1=CC(=O)c2c(O)ccc(O)c2C1=O [PMM-160, (R)-1-(5,8-dihydroxy-1,4-dioxo-1,4-dihydronaphthalen-2-yl)-4-methylpent-3-en-1-yl 2-((5-(3-fluorophenyl)-1,3,4-oxadiazol-2-yl)thio)acetate] | 68.3 ± 0.27 µM | 18.3 ± 1.24 µM | 15.3 ± 0.52 µM | 9.66 ± 1.21 µM | 11.8 ± 0.86 µM | 12.4 ± 0.52 µM | 10.5 ± 0.88 µM | – | –
COc1ccccc1-c1nnc(SCC(=O)O[C@H](CC=C(C)C)C2=CC(=O)c3c(O)ccc(O)c3C2=O)o1 [PMM-170, (R)-1-(5,8-dihydroxy-1,4-dioxo-1,4-dihydronaphthalen-2-yl)-4-methylpent-3-en-1-yl 2-((5-(2-methoxyphenyl)-1,3,4-oxadiazol-2-yl)thio)acetate] | 94.6 ± 0.83 µM | 12.7 ± 1.06 µM | 9.73 ± 1.03 µM | 4.31 ± 0.65 µM | 6.88 ± 0.73 µM | 8.44 ± 0.78 µM | 8.27 ± 0.69 µM | – | –
CC(C)=CC[C@@H](OC(=O)CSc1nnc(-c2cccc(Br)c2)o1)C1=CC(=O)c2c(O)ccc(O)c2C1=O [PMM-166, (R)-1-(5,8-dihydroxy-1,4-dioxo-1,4-dihydronaphthalen-2-yl)-4-methylpent-3-en-1-yl 2-((5-(3-bromophenyl)-1,3,4-oxadiazol-2-yl)thio)acetate] | 69.9 ± 0.58 µM | 6.91 ± 0.73 µM | 6.41 ± 0.75 µM | 3.64 ± 0.91 µM | 4.66 ± 0.59 µM | 4.07 ± 0.66 µM | 4.87 ± 0.58 µM | – | –
CC(C)=CC[C@@H](OC(=O)CSc1nnc(-c2ccccc2)o1)C1=CC(=O)c2c(O)ccc(O)c2C1=O [PMM-158, (R)-1-(5,8-dihydroxy-1,4-dioxo-1,4-dihydronaphthalen-2-yl)-4-methylpent-3-en-1-yl 2-((5-phenyl-1,3,4-oxadiazol-2-yl)thio)acetate] | 92.5 ± 0.27 µM | 15.6 ± 1.03 µM | 12.1 ± 0.42 µM | 9.17 ± 0.99 µM | 10.1 ± 0.92 µM | 10.6 ± 0.65 µM | 11.5 ± 0.74 µM | – | –
COc1cccc(-c2nnc(SCC(=O)O[C@H](CC=C(C)C)C3=CC(=O)c4c(O)ccc(O)c4C3=O)o2)c1 [PMM-169, (R)-1-(5,8-dihydroxy-1,4-dioxo-1,4-dihydronaphthalen-2-yl)-4-methylpent-3-en-1-yl 2-((5-(3-methoxyphenyl)-1,3,4-oxadiazol-2-yl)thio)acetate] | 99.5 ± 0.49 µM | 8.36 ± 0.97 µM | 8.12 ± 0.98 µM | 5.33 ± 0.77 µM | 7.36 ± 0.87 µM | 7.22 ± 1.11 µM | 6.95 ± 0.82 µM | – | –
CC(C)=CC[C@@H](OC(=O)CSc1nnc(-c2ccc(Br)cc2)o1)C1=CC(=O)c2c(O)ccc(O)c2C1=O [PMM-165, (R)-1-(5,8-dihydroxy-1,4-dioxo-1,4-dihydronaphthalen-2-yl)-4-methylpent-3-en-1-yl 2-((5-(4-bromophenyl)-1,3,4-oxadiazol-2-yl)thio)acetate] | 83.7 ± 1.28 µM | 9.22 ± 0.98 µM | 9.38 ± 0.66 µM | 5.47 ± 1.01 µM | 5.97 ± 0.67 µM | 6.58 ± 0.15 µM | 6.23 ± 0.73 µM | – | –
CC(C)=CC[C@@H](OC(=O)CSc1nnc(-c2ccccc2F)o1)C1=CC(=O)c2c(O)ccc(O)c2C1=O [PMM-161, (R)-1-(5,8-dihydroxy-1,4-dioxo-1,4-dihydronaphthalen-2-yl)-4-methylpent-3-en-1-yl 2-((5-(2-fluorophenyl)-1,3,4-oxadiazol-2-yl)thio)acetate] | 84.5 ± 0.74 µM | 11.1 ± 1.12 µM | 9.81 ± 0.49 µM | 8.58 ± 0.53 µM | 9.55 ± 0.83 µM | 8.97 ± 1.05 µM | 9.29 ± 0.66 µM | – | –
CC(C)=CC[C@@H](O)C1=CC(=O)c2c(O)ccc(O)c2C1=O [Shikonin, shikonin] | 23.5 ± 1.01 µM | 5.74 ± 0.66 µM | 4.57 ± 0.69 µM | – | 3.28 ± 0.41 µM | 3.61 ± 0.34 µM | 3.75 ± 0.52 µM | 2.88 ± 0.25 µM | 3.28 ± 0.41 µM
CC(C)=CC[C@@H](OC(=O)CSc1nnc(-c2ccccc2Br)o1)C1=CC(=O)c2c(O)ccc(O)c2C1=O [PMM-167, (R)-1-(5,8-dihydroxy-1,4-dioxo-1,4-dihydronaphthalen-2-yl)-4-methylpent-3-en-1-yl 2-((5-(2-bromophenyl)-1,3,4-oxadiazol-2-yl)thio)acetate] | 72.5 ± 1.53 µM | 13.7 ± 0.92 µM | 15.3 ± 0.61 µM | 9.01 ± 0.56 µM | 10.6 ± 0.82 µM | 12.2 ± 0.42 µM | 9.76 ± 0.95 µM | – | –
CC(C)=CC[C@@H](OC(=O)CSc1nnc(-c2cccc(Cl)c2)o1)C1=CC(=O)c2c(O)ccc(O)c2C1=O [PMM-163, (R)-1-(5,8-dihydroxy-1,4-dioxo-1,4-dihydronaphthalen-2-yl)-4-methylpent-3-en-1-yl 2-((5-(3-chlorophenyl)-1,3,4-oxadiazol-2-yl)thio)acetate] | 86.2 ± 0.33 µM | 9.27 ± 0.86 µM | 8.69 ± 0.83 µM | 6.04 ± 0.59 µM | 7.09 ± 0.63 µM | 7.83 ± 0.55 µM | 7.56 ± 0.72 µM | – | –
CC(C)=CC[C@@H](OC(=O)CSc1nnc(-c2ccc(F)cc2)o1)C1=CC(=O)c2c(O)ccc(O)c2C1=O [PMM-159, (R)-1-(5,8-dihydroxy-1,4-dioxo-1,4-dihydronaphthalen-2-yl)-4-methylpent-3-en-1-yl 2-((5-(4-fluorophenyl)-1,3,4-oxadiazol-2-yl)thio)acetate] | 89.5 ± 0.99 µM | 10.8 ± 0.94 µM | 9.22 ± 0.13 µM | 7.24 ± 0.82 µM | 8.49 ± 0.78 µM | 8.23 ± 1.27 µM | 8.95 ± 0.69 µM | – | –
CC(C)=CC[C@@H](OC(=O)CSc1nnc(-c2ccc(C)cc2)o1)C1=CC(=O)c2c(O)ccc(O)c2C1=O [PMM-173, (R)-1-(5,8-dihydroxy-1,4-dioxo-1,4-dihydronaphthalen-2-yl)-4-methylpent-3-en-1-yl 2-((5-(p-tolyl)-1,3,4-oxadiazol-2-yl)thio)acetate] | 88.9 ± 0.34 µM | 6.03 ± 0.71 µM | 5.58 ± 0.83 µM | 2.59 ± 0.19 µM | 4.06 ± 0.53 µM | 3.76 ± 0.88 µM | 3.59 ± 0.49 µM | – | –

From article PMC5460289, “Identification of New Shikonin Derivatives as Antitumor Agents Targeting STAT3 SH2 Domain” (Scientific Reports, 2017)
